Measurements published in ChEMBL document CHEMBL1201862, “PubChem BioAssay data set” (2004).
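In this assay, cells in 96-well plates receive the compound at five concentrations for 48 hours. Endpoints are linearly interpolated between the surrounding concentrations. Abbreviation: GI50, concentration required for 50% inhibition of growth.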 Calls of active or inactive are those of the source. No stated cut-off is given here; in the data, active = GI50 up to about 1.1 µM and inactive = higher.

What was measured:
Experiment in all cases: growth of human tumour cells (NCI), 48 h
SNB-75 = tested on: SNB-75
UO-31 = tested on: UO-31
UACC-257 = tested on: UACC-257
SF-295 = tested on: SF-295
HT-29 = tested on: HT-29
SK-MEL-2 = tested on: SK-MEL-2
HCT-116 = tested on: HCT-116
Malme-3M = tested on: Malme-3M
HOP-92 = tested on: HOP-92
SF-539 = tested on: SF-539
SW-620 = tested on: SW-620
SK-MEL-28 = tested on: SK-MEL-28
NCI/ADR-RES = tested on: NCI/ADR-RES
HOP-62 = tested on: HOP-62
TK-10 = tested on: TK-10
HCT-15 = tested on: HCT-15
DU-145 = tested on: DU-145
NCI-H226 = tested on: NCI-H226
NCI-H522 = tested on: NCI-H522
LOX IMVI = tested on: LOX IMVI

Row | Structure (SMILES) | GI50 (SNB-75) | GI50 (UO-31) | GI50 (UACC-257) | GI50 (SF-295) | GI50 (HT-29) | GI50 (SK-MEL-2) | GI50 (HCT-116) | GI50 (Malme-3M) | GI50 (HOP-92) | GI50 (SF-539) | GI50 (SW-620) | GI50 (SK-MEL-28) | GI50 (NCI/ADR-RES) | GI50 (HOP-62) | GI50 (TK-10) | GI50 (HCT-15) | GI50 (DU-145) | GI50 (NCI-H226) | GI50 (NCI-H522) | GI50 (LOX IMVI)
1 | O=C(NNC(=S)Nc1ccccc1)c1cc(-c2ccccc2)nc2ccccc12 | 17.3 µM (inactive) | 15.2 µM (inactive) | 19.1 µM (inactive) | 13.1 µM (inactive) | 28.6 µM (inactive) | 11.1 µM (inactive) | 14.4 µM (inactive) | 23.3 µM (inactive) | 15.6 µM (inactive) | 21.4 µM (inactive) | 18.7 µM (inactive) | 16.4 µM (inactive) | 17.4 µM (inactive) | 15.7 µM (inactive) | 22 µM (inactive) | 13.9 µM | 17 µM (inactive) | 23.6 µM (inactive) | 18.1 µM (inactive) | –
2 | CC(C)[S+]1C2=C(CC(C)(C)CC2=O)[N-]c2ccccc21 (stereo not given) | > 100 µM (inactive) | > 100 µM (inactive) | > 100 µM (inactive) | > 100 µM (inactive) | > 100 µM (inactive) | > 100 µM (inactive) | > 100 µM (inactive) | > 100 µM (inactive) | > 100 µM (inactive) | – | > 100 µM (inactive) | > 100 µM (inactive) | > 100 µM (inactive) | > 100 µM (inactive) | > 100 µM (inactive) | > 100 µM | > 100 µM (inactive) | > 100 µM (inactive) | > 100 µM (inactive) | > 100 µM (inactive)
3 | NC(=O)N(O)c1cccc(Br)c1 | > 100 µM (inactive) | > 100 µM (inactive) | > 100 µM (inactive) | > 100 µM (inactive) | > 100 µM (inactive) | 66.5 µM (inactive) | > 100 µM (inactive) | – | > 100 µM (inactive) | > 100 µM (inactive) | > 100 µM (inactive) | > 100 µM (inactive) | > 100 µM (inactive) | > 100 µM (inactive) | > 100 µM (inactive) | > 100 µM | > 100 µM (inactive) | > 100 µM (inactive) | > 100 µM (inactive) | > 100 µM (inactive)
4 | O=C1CSC2=NCC3(NN12)c1ccccc1-c1ccccc13 | > 10 µM (inactive) | > 10 µM (inactive) | > 10 µM (inactive) | > 10 µM (inactive) | > 10 µM (inactive) | – | > 10 µM (inactive) | > 10 µM (inactive) | > 10 µM (inactive) | > 10 µM (inactive) | > 10 µM (inactive) | > 10 µM (inactive) | > 10 µM (inactive) | > 10 µM (inactive) | > 10 µM (inactive) | > 10 µM | > 10 µM (inactive) | > 10 µM (inactive) | > 10 µM (inactive) | > 10 µM (inactive)
5 | COc1cc(/C=C2\CC3C4CC=C5C[C@@H](O)CC[C@]5(C)C4CC[C@]3(C)\C2=N\O)cc(OC)c1OC (stereo not given in full) | 9.2 µM (inactive) | 2.28 µM (inactive) | 9.91 µM (inactive) | 3.02 µM (inactive) | 5.51 µM (inactive) | 4.07 µM (inactive) | 4.05 µM (inactive) | 9.35 µM (inactive) | 14.3 µM (inactive) | 6.25 µM (inactive) | 16.7 µM (inactive) | 14.2 µM (inactive) | 7.6 µM (inactive) | 19.6 µM (inactive) | 7.53 µM (inactive) | 3.88 µM | 12.9 µM (inactive) | 7.96 µM (inactive) | 4.93 µM (inactive) | 5.48 µM (inactive)
6 | OC(NN=C1CCCC1)(C(F)(F)Cl)C(F)(F)Cl | > 10 µM (inactive) | – | > 10 µM (inactive) | > 10 µM (inactive) | > 10 µM (inactive) | > 10 µM (inactive) | > 10 µM (inactive) | > 10 µM (inactive) | > 10 µM (inactive) | > 10 µM (inactive) | > 10 µM (inactive) | > 10 µM (inactive) | > 10 µM (inactive) | > 10 µM (inactive) | > 10 µM (inactive) | > 10 µM | > 10 µM (inactive) | > 10 µM (inactive) | > 10 µM (inactive) | > 10 µM (inactive)
7 | CN(CC(=O)O)c1ncc2c(n1)-c1ccccc1CC2 | 74.8 µM (inactive) | > 100 µM (inactive) | > 100 µM (inactive) | > 100 µM (inactive) | > 100 µM (inactive) | > 100 µM (inactive) | > 100 µM (inactive) | > 100 µM (inactive) | > 100 µM (inactive) | > 100 µM (inactive) | > 100 µM (inactive) | > 100 µM (inactive) | > 100 µM (inactive) | > 100 µM (inactive) | > 100 µM (inactive) | > 100 µM | > 100 µM (inactive) | > 100 µM (inactive) | > 100 µM (inactive) | > 100 µM (inactive)
